This assay has as its system P335 leukemia ip, BDF1 mice, survival T/C %. The assay is described as follows: NCI In Vivo Anticancer Drug Screen. Data for tumor model P335 Leukemia (intraperitoneal) in B6D2F1 (BDF1) mice. Conditions: endpoint: mean survival time, schedule: Q01DX Z (ip), higher = longer survival. As to the method: The antitumor activity of compounds was measured in mice bearing transplantable tumors. Survival or tumor size were measured and the results are expressed as the measurement made in the treated group (T) divided by the measurement made in the vehicle treated control group (C). The tumor model used in this assay is P335 Leukemia (intraperitoneal) in B6D2F1 (BDF1) mice

Where [1] appears, read: dose: 6.25 mg/kg/injection, vehicle: carboxymethylcellulose (CMC).
Setting [2] is: dose: 12.5 mg/kg/injection, vehicle: carboxymethylcellulose (CMC).
Setting [3] is: dose: 100.0 mg/kg/injection, vehicle: other.
[4] abbreviates: dose: 0.25 mg/kg/injection, vehicle: carboxymethylcellulose (CMC).
[5] abbreviates: dose: 50.0 mg/kg/injection, vehicle: carboxymethylcellulose (CMC).
Setting [6] is: dose: 100.0 mg/kg/injection, vehicle: carboxymethylcellulose (CMC).
Where [7] appears, read: dose: 1.6 mg/kg/injection, vehicle: carboxymethylcellulose (CMC).
Setting [8] is: dose: 3.1 mg/kg/injection, vehicle: carboxymethylcellulose (CMC).
Where [9] appears, read: dose: 16.0 mg/kg/injection, vehicle: carboxymethylcellulose (CMC).

Values joined by “and” are separate entries in the source; they are usually repeats but may differ in a detail not shown here. Identical values can stand only once. Toxic doses and inconclusive results are not listed.

This passage reports T/C results from PubChem BioAssay AID224 (DTP/NCI, 2004).

With `OCC1OC(n2cnc3c(Cl)ncnc32)C(O)C1O` (configuration not stated), the T/C was 101 % of control (dose: 7.8 mg/kg/injection, vehicle: carboxymethylcellulose (CMC)) and 105 % of control (dose: 15.6 mg/kg/injection, vehicle: carboxymethylcellulose (CMC)).
As to `Nc1ncnc2[nH]ncc12`, the T/C is 89 % of control under setting [1] and 92 % of control under setting [2].
Consider `Nc1nc2n[nH]nc2c(=O)[nH]1`, for which the T/C under setting [3] is 115 % of control.
With `Cc1n[nH]c(=O)[nH]c1=O`, the T/C was 97 % of control (dose: 50.0 mg/kg/injection, vehicle: other); 97 % of control under setting [3]; 102 % of control (dose: 200.0 mg/kg/injection, vehicle: other); 103 % of control (dose: 400.0 mg/kg/injection, vehicle: other).
In the case of `CCCNc1ncnc2[nH]ncc12`, the T/C (dose: 0.62 mg/kg/injection, vehicle: water) is 95 % of control and the T/C (dose: 5.0 mg/kg/injection, vehicle: water) is 94 % of control.
Regarding `N#Cc1cn(C2OC(CO)C(O)C2O)c2ncnc(N)c12` (configuration not stated), the T/C was 106 % of control under setting [4] and 98 % of control (dose: 0.5 mg/kg/injection, vehicle: carboxymethylcellulose (CMC)).
On to `N#CCSc1ncnc2nc[nH]c12`, for which the T/C by setting is: under setting [5], 93 % of control; under setting [6], 93 % of control; (dose: 200.0 mg/kg/injection, vehicle: methylcellulose (MC)) 91 % of control.
Turning to `O=C(Nc1ccc(C2=NCCN2)cc1)c1ccc(C(=O)Nc2ccc(C3=NCCN3)cc2)cc1`, the T/C was 112 % of control (dose: 25.0 mg/kg/injection, vehicle: carboxymethylcellulose (CMC)); 93 % of control under setting [5]; 112 % of control under setting [6]; 179 % of control (dose: 200.0 mg/kg/injection, vehicle: carboxymethylcellulose (CMC)).
On to `CN(C)c1ccc(/C=C/c2ccnc3ccccc23)cc1`, for which the T/C under setting [7] was 94 % of control; the T/C under setting [8] was 89 % of control; the T/C (dose: 6.2 mg/kg/injection, vehicle: water) is 100 % of control; the T/C under setting [1] is 90 % of control and 105 % of control; the T/C (dose: 12.5 mg/kg/injection, vehicle: water) was 95 % of control; the T/C (dose: 25.0 mg/kg/injection, vehicle: water) is 92 % of control. Also, the T/C under setting [5] was 118 % of control.
Take `CS(=O)(=O)OCCCCOS(C)(=O)=O`: the T/C runs as follows: (dose: 0.2 mg/kg/injection, vehicle: methylcellulose (MC)) 87 % of control; (dose: 0.4 mg/kg/injection, vehicle: methylcellulose (MC)) 100 % of control; (dose: 0.8 mg/kg/injection, vehicle: methylcellulose (MC)) 98 % of control; (dose: 1.6 mg/kg/injection, vehicle: methylcellulose (MC)) 89 % of control and 104 % of control; (dose: 6.4 mg/kg/injection, vehicle: methylcellulose (MC)) 94 % of control; (dose: 12.8 mg/kg/injection, vehicle: methylcellulose (MC)) 94 % of control. Also, under “dose: 25.6 mg/kg/injection, vehicle: methylcellulose (MC)”, the T/C is 87 % of control.
Take `NC(=O)N(CCCl)N=O`: the T/C was 94 % of control (dose: 0.12 mg/kg/injection, vehicle: carboxymethylcellulose (CMC)); 114 % of control under setting [4]; 110 % of control (dose: 1.0 mg/kg/injection, vehicle: carboxymethylcellulose (CMC)).
`O=C(Nc1ccc(C2=NCCCN2)cc1)c1ccc(C(=O)Nc2ccc(C3=NCCCN3)cc2)cc1`: the T/C (dose: 0.4 mg/kg/injection, vehicle: water) was 98 % of control; the T/C (dose: 1.6 mg/kg/injection, vehicle: water) is 154 % of control; the T/C (dose: 3.1 mg/kg/injection, vehicle: water) is 207 % of control.
As to `O=C(Nc1ccc(C2=NCCCN2)cc1)c1ccc(NC(=O)c2ccc(C3=NCCCN3)cc2)cc1`, the T/C was 168 % of control (dose: 4.0 mg/kg/injection, vehicle: carboxymethylcellulose (CMC)); 176 % of control (dose: 8.0 mg/kg/injection, vehicle: carboxymethylcellulose (CMC)); 108 % of control under setting [9].
Consider `N[C@@H](Cc1ccc(N(CCCl)CCCl)cc1)C(=O)O`, for which the T/C reads like this: (dose: 1.25 mg/kg/injection, vehicle: saline) 168 % of control; (dose: 2.5 mg/kg/injection, vehicle: saline) 169 % of control and 195 % of control; (dose: 5.0 mg/kg/injection, vehicle: saline) 106 % of control.
`OCC1OC(n2cnc3c(=S)nc[nH]c32)C(O)C1O` (configuration not stated): the T/C reads like this: under setting [9], 87 % of control and 90 % of control; (dose: 31.0 mg/kg/injection, vehicle: carboxymethylcellulose (CMC)) 109 % of control and 110 % of control; (dose: 62.5 mg/kg/injection, vehicle: carboxymethylcellulose (CMC)) 98 % of control; (dose: 125.0 mg/kg/injection, vehicle: carboxymethylcellulose (CMC)) 93 % of control.
In the case of `CN(C)c1ccc(Nc2c3ccccc3nc3ccccc23)cc1`, the T/C was 112 % of control under setting [7]; 93 % of control under setting [8]; 96 % of control (dose: 6.2 mg/kg/injection, vehicle: carboxymethylcellulose (CMC)); 117 % of control under setting [2].
Regarding `C1CN1c1nc(N2CC2)nc(N2CC2)n1`, the T/C reads like this: (dose: 0.9 micrograms/kg/injection, vehicle: saline) 87 % of control; (dose: 1.9 micrograms/kg/injection, vehicle: saline) 90 % of control; (dose: 7.8 micrograms/kg/injection, vehicle: saline) 90 % of control and 114 % of control.
In the case of `CCOC(N)=O`, the T/C by setting is: (dose: 63.0 mg/kg/injection, vehicle: saline) 95 % of control; (dose: 93.75 mg/kg/injection, vehicle: saline) 109 % of control; (dose: 125.0 mg/kg/injection, vehicle: saline) 108 % of control; (dose: 250.0 mg/kg/injection, vehicle: saline) 95 % of control; (dose: 500.0 mg/kg/injection, vehicle: saline) 112 % of control.
For the compound `Nc1nc(N)c2nc(CNc3ccc(C(=O)NC(CCC(=O)O)C(=O)O)cc3)cnc2n1` (configuration not stated), the T/C (dose: 16.0 micrograms/kg/injection, vehicle: alkali diluted with saline) was 96 % of control; the T/C (dose: 31.0 micrograms/kg/injection, vehicle: alkali diluted with saline) was 121 % of control; the T/C (dose: 62.0 micrograms/kg/injection, vehicle: alkali diluted with saline) is 169 % of control; the T/C (dose: 63.0 micrograms/kg/injection, vehicle: alkali diluted with saline) is 96 % of control; the T/C (dose: 250.0 micrograms/kg/injection, vehicle: alkali diluted with saline) was 98 % of control.
